Among the data in ChEMBL document CHEMBL5104172, “Design, synthesis, and antibacterial activity of derivatives of Tryptophanyl-tRNA synthetase inhibitor indolmycin” (Eur J Med Chem, 2022) are MIC values, retold here.

Holding throughout (type): functional
The test system of one assay is Escherichia coli. As to the kind of experiment: Antibacterial activity against Escherichia coli ATCC 25922 measured by liquid dilution method.
Assay [1] concerns Staphylococcus aureus. Briefly: Antibacterial activity against methicillin-resistant Staphylococcus aureus NRS384 measured by liquid dilution method.
Assay [2] relates to Staphylococcus aureus. Briefly: Antibacterial activity against Staphylococcus aureus ATCC 29213 measured by liquid dilution method.
Assay [3] deals with Staphylococcus aureus. Briefly: Antibacterial activity against vancomycin-intermediate Staphylococcus aureus ATCC 700699 measured by liquid dilution method.
The next assay relates to Enterococcus faecalis. As to the kind of experiment: Antibacterial activity against Enterococcus faecalis EFA17-1 measured by liquid dilution method.

Values after ≈ are worked out from the molar mass of the structure shown.

As usually defined, the MIC is the lowest concentration that inhibits growth of the organism. A higher MIC goes with weaker potency. On to `CC(c1c[nH]c2ccccc12)C1OC(N)=NC1=O` (racemic), for which the values for the MIC in the assay on Escherichia coli, in the assay with Staphylococcus aureus [1] and in the assay with Staphylococcus aureus [2] were above 128 µg/mL, above 128 µg/mL and 8 µg/mL (≈ 32.9 µM), respectively.

In the case of `CNC1=NC(=O)C(C(C)c2c[nH]c3cccc(Br)c23)S1` (racemic), the MIC was above 128 µg/mL in the assay on Escherichia coli, above 128 µg/mL against Staphylococcus aureus [1] and 16 µg/mL (≈ 45.4 µM) in the assay with Staphylococcus aureus [2].

As to `CNC1=NC(=O)C(C(C)c2c[nH]c3ccc(N4CCCCC4)cc23)O1` (racemic), the MIC against Escherichia coli, in the assay with Staphylococcus aureus [1] and against Staphylococcus aureus [2] was above 128 µg/mL throughout.

Turning to `CNC1=NC(=O)C(C(C)c2c[nH]c3c(C)cccc23)O1` (racemic), the MIC against Escherichia coli, with Staphylococcus aureus [1] and in the assay on Staphylococcus aureus [2] was above 128 µg/mL in each case.

For the molecule `CNC1=NC(=O)C(C(C)c2c[nH]c3cccc(Br)c23)O1` (racemic), the MIC in the assay on Escherichia coli is above 128 µg/mL; against Staphylococcus aureus [1], above 128 µg/mL; in the assay on Staphylococcus aureus [2], 4 µg/mL (≈ 11.9 µM).

As to `CNC1=NC(=O)C(C(C)c2c[nH]c3cccc(O)c23)O1` (racemic), the MIC is above 128 µg/mL with Escherichia coli, 8 µg/mL (≈ 29.3 µM) against Staphylococcus aureus [1] and above 128 µg/mL in the assay on Staphylococcus aureus [2].

As for `CNC1=NC(=O)C(C(C)c2c[nH]c3cccc(OCc4ccccc4)c23)O1` (racemic), the MIC in the assay on Escherichia coli, against Staphylococcus aureus [1] and in the assay with Staphylococcus aureus [2] was above 128 µg/mL throughout.

Turning to `CNC1=NC(=O)C(C(C)c2c[nH]c3ccc(F)cc23)O1` (racemic), the MIC against Escherichia coli was determined as 128 µg/mL (≈ 465 µM); against Staphylococcus aureus [1], 64 µg/mL (≈ 232 µM); in the assay with Staphylococcus aureus [2] it was 32 µg/mL (≈ 116 µM).

`CNC1=NC(=O)C(C(C)c2c[nH]c3cccc(OC)c23)O1` (racemic): the MIC was 16 µg/mL (≈ 55.7 µM) in the assay on Escherichia coli, above 128 µg/mL in the assay with Staphylococcus aureus [1] and 128 µg/mL (≈ 445 µM) in the assay with Staphylococcus aureus [2].

With `CNC1=NC(=O)C(C(C)c2c[nH]c3cccc(C)c23)S1` (racemic), the MIC is above 128 µg/mL with Escherichia coli, above 128 µg/mL with Staphylococcus aureus [1] and 4 µg/mL (≈ 13.9 µM) against Staphylococcus aureus [2].

Turning to `CC(c1c[nH]c2ccccc12)C1SC(N)=NC1=O` (racemic), the MIC in the assay on Escherichia coli was above 128 µg/mL; against Staphylococcus aureus [1], above 128 µg/mL; against Staphylococcus aureus [2], 8 µg/mL (≈ 30.8 µM).

As to `CNC1=NC(=O)C(C(C)c2c[nH]c3cccc(F)c23)O1` (racemic), the figures for the MIC against Escherichia coli, in the assay with Staphylococcus aureus [1] and against Staphylococcus aureus [2] were 4 µg/mL (≈ 14.5 µM), 1 µg/mL (≈ 3.63 µM) and 1 µg/mL (≈ 3.63 µM), respectively.

As for `CNC1=NC(=O)C(C(C)c2c[nH]c3cccc(N4CCCCC4)c23)O1` (racemic), the MIC with Escherichia coli was above 128 µg/mL; against Staphylococcus aureus [1], above 128 µg/mL; against Staphylococcus aureus [2] it was 64 µg/mL (≈ 188 µM).

As to `CCN(CC)c1cccc2[nH]cc(C(C)C3OC(NC)=NC3=O)c12` (racemic), the results for the minimum inhibitory concentration (MIC) in the assay with Escherichia coli, with Staphylococcus aureus [1] and in the assay on Staphylococcus aureus [2] were above 128 µg/mL, above 128 µg/mL and 64 µg/mL (≈ 195 µM), respectively.

For `CNC1=NC(=O)C(C(C)c2c[nH]c3cc(F)ccc23)O1` (racemic), the values for the MIC in the assay on Escherichia coli, against Staphylococcus aureus [1] and against Staphylococcus aureus [2] were 8 µg/mL (≈ 29.1 µM), 8 µg/mL (≈ 29.1 µM) and 16 µg/mL (≈ 58.1 µM), respectively.

Take `CNC1=NC(=O)C(C(C)c2c[nH]c3cccc(C)c23)O1` (racemic): the MIC in the assay on Escherichia coli is 32 µg/mL (≈ 118 µM); with Staphylococcus aureus [1], above 128 µg/mL; with Staphylococcus aureus [2] it was 2 µg/mL (≈ 7.37 µM).

In the case of `CN[C@H](CC(C)C)C(=O)N[C@H]1C(=O)N[C@@H](CC(N)=O)C(=O)N[C@H]2C(=O)N[C@H]3C(=O)N[C@H](C(=O)N[C@H](C(=O)O)c4cc(O)cc(O)c4-c4cc3ccc4O)[C@H](O)c3ccc(c(Cl)c3)Oc3cc2cc(c3O[C@@H]2O[C@H](CO)[C@@H](O)[C@H](O)[C@H]2O[C@H]2C[C@](C)(N)[C@H](O)[C@H](C)O2)Oc2ccc(cc2Cl)[C@H]1O` [VANCOMYCIN], the figures for the MIC in the assay on Staphylococcus aureus [3] and with Enterococcus faecalis were 8 µg/mL (≈ 5.52 µM) and 2 µg/mL (≈ 1.38 µM), respectively.
